This passage reports inward current response results from paper PMC10280969, “A green leaf volatile, (Z)-3-hexenyl-acetate, mediates differential oviposition by Spodoptera frugiperda on maize and rice” (BMC Biology, 2023).

Holding throughout (assay): two-electrode voltage clamp, Xenopus oocytes
Holding throughout (format): cell-based
Details in all cases: 10^-4 M odorant; Ca2+-free Ringer buffer pH 7.6; agonist
In general terms: In two-electrode clamp one electrode senses voltage and the other passes current.

Assay [1] addresses T1, SfruOR23/ORco (Spodoptera frugiperda, UniProt A0A9R0EA99).
T1 construct: gene LOC118268273; full-length ORF, pT7TS cRNA, Xenopus laevis oocytes, with ORco; with Odorant receptor coreceptor
T1 sequence (A0A9R0EA99 1-429): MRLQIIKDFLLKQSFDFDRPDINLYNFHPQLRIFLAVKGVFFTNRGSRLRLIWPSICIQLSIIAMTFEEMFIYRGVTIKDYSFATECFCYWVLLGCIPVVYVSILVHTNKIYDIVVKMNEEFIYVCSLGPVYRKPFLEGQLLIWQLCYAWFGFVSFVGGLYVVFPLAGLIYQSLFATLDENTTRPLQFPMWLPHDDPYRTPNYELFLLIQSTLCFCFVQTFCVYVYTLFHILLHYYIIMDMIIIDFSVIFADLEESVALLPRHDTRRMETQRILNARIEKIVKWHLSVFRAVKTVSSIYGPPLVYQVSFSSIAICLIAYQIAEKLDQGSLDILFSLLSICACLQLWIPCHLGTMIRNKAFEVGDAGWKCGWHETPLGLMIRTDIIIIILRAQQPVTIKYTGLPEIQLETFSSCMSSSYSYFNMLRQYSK
T1 sequence (A0A9F1UC78 1-473 partner): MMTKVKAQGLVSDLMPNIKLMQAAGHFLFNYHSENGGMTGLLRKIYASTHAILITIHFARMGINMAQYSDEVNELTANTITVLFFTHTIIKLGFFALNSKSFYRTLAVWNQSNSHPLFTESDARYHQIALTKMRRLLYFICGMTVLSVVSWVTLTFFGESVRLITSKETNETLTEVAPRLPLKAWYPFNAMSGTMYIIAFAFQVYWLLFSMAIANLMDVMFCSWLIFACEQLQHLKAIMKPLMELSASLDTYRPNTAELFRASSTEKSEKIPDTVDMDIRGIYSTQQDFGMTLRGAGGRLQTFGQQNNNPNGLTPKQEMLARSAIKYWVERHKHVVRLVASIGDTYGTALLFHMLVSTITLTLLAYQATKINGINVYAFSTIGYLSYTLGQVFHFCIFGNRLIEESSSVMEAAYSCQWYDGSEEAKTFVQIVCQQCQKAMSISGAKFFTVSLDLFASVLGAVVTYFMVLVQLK

Assay [2] deals with T2, SfruOR5 (Spodoptera frugiperda, UniProt A0A9R0ELQ8).
T2 construct: gene LOC118270580; full-length ORF, pT7TS cRNA, Xenopus laevis oocytes; with Odorant receptor coreceptor
T2 sequence (A0A9R0ELQ8 1-379): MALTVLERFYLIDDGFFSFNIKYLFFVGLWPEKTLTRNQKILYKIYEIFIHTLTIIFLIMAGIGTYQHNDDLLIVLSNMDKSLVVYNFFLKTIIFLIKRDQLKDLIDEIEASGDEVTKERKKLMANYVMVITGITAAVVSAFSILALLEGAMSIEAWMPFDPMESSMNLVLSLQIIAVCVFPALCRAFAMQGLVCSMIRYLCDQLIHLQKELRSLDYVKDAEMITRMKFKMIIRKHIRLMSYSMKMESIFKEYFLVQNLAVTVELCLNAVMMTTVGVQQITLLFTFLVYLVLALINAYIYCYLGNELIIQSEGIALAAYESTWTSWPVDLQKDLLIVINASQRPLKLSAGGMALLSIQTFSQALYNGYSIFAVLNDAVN
T2 sequence (A0A9F1UC78 1-473 partner): T1 sequence (A0A9F1UC78 1-473 partner)

For assay [3], the target named is T3, SfruOR9 (Spodoptera frugiperda, UniProt A0A9R0EEX7).
T3 construct: gene LOC118261888; full-length ORF, pT7TS cRNA, Xenopus laevis oocytes; with Odorant receptor coreceptor
T3 sequence (A0A9R0EEX7 1-400): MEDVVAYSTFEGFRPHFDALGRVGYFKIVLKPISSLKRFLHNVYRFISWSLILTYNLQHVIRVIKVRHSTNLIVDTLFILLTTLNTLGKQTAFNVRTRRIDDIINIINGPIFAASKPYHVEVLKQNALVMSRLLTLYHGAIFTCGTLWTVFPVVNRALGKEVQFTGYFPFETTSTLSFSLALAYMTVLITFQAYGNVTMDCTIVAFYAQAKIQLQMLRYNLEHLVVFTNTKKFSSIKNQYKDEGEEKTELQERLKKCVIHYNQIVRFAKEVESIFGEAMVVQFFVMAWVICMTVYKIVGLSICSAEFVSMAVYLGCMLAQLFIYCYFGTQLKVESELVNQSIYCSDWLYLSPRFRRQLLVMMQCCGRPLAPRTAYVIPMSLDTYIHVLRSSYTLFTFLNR
T3 sequence (A0A9F1UC78 1-473 partner): T1 sequence (A0A9F1UC78 1-473 partner)

The target in assay [4] is T4, SfruOR17 (Spodoptera frugiperda, UniProt A0A9R0D2T2).
T4 construct: gene LOC118267896; full-length ORF, pT7TS cRNA, Xenopus laevis oocytes; with Odorant receptor coreceptor
T4 sequence (A0A9R0D2T2 1-395): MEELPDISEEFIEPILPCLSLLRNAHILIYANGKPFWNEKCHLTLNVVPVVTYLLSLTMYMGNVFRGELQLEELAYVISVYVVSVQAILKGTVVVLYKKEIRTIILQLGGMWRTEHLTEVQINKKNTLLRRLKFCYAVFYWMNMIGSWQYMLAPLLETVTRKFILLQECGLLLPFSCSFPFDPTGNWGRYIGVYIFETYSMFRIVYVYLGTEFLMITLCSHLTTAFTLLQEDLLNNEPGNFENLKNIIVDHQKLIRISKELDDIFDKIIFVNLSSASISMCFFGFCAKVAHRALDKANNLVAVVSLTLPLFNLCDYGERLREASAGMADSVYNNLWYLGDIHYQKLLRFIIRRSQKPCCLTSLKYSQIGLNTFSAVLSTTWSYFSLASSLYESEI
T4 sequence (A0A9F1UC78 1-473 partner): T1 sequence (A0A9F1UC78 1-473 partner)

With `CC/C=C\CCOC(C)=O` [(Z)-3-hexenyl-acetate], the inward current response entry in assay [1] is “with SfruOR23/ORco showing the highest response”; in assay [2], “SfruOR5, SfruOR9, SfruOR17, SfruOR23, and SfruOR25 responded to the oviposition stimulant (Z)-3-hexenyl-acetate”; in assay [3], “SfruOR5, SfruOR9, SfruOR17, SfruOR23, and SfruOR25 responded to the oviposition stimulant (Z)-3-hexenyl-acetate”; in assay [4] it was “SfruOR5, SfruOR9, SfruOR17, SfruOR23, and SfruOR25 responded to the oviposition stimulant (Z)-3-hexenyl-acetate”.
